# Like-named read-outs stand apart in the source and are kept apart here.
# What was measured:
# [1] = tested on: Wnt activity (SW480 colon carcinoma cells stably expressing the Sp5-Luc reporter gene); assay: Wnt activity screening assay (Sp5-Luc reporter gene assay); format: cell-based, human; settings: Homo sapiens; for EC50: 36 to 48 hours; for inhibition at 10 µM: read-out: percent inhibition at 10 μM (given for EC50 >10 μM), 10 μM
# How it was run: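 EC50 values come from a variable-slope four-parameter fit of luminescence normalized to DMSO-only wells. The read-out follows 36–48 h incubation at 37 °C, 5% CO2, in DMEM containing 1% fetal bovine serum. Cells are hygromycin-selected SW480 stably expressing firefly luciferase under a Wnt-responsive Sp5 promoter (eight TCF/LEF sites).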
# recombinant GSK3β kinase = recombinant GSK3β kinase (Homo sapiens (Human), UniProt P49841); assay: GSK3β kinase assay (Ser/Thr 09 peptide Z-lyte, FRET); format: biochemical;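 also: FRET read-out as coumarin over fluorescein emission ratio, compounds incubated one hour at room temperature, IC50 from dose-response curve fit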
# Protocol: Each compound is dissolved in DMSO as a 10 mM stock and used to prepare compound source plates. Serial dilution (1:3, 11-point dose-response curves from 10 M to 0.0003 M) and compound transfer was performed using the ECHO 550 (Labcyte, Sunnyvale, Calif.) into 1536-well black-walled round bottom plates (Corning).
# This is a non-radioactive assay using fluorescence resonance energy transfer (FRET) between coumarin and fluorescein to detect kinase activity which is represented as ratio of coumarin emission/fluorescein emission.
# The mixture is allowed to incubate with the representative compounds for one hour at room temperature. All reactions were performed in duplicate. Unphosphorylated (“0% Control”) and phosphorylated (“100% control”) forms of Ser/Thr 18 serve as control reactions.
# After incubation, diluted Development Buffer is added to the reaction and allowed to further incubate for one hour at room temperature.
# Dose-response curves are generated and inhibitory concentration (IC50) values are calculated using non-linear regression curve fit in the Dotmatics' Studies Software (Bishops Stortford, UK).
# [2] = tested on: Tau phosphorylation at Ser396 (pSer396) in SH-SY5Y cells; assay: Tau phosphorylation at Ser396 (pSer396) cell assay, ELISA/western blot; format: cell-based, human; settings: Homo sapiens; SH-SY5Y cells, overnight (16-18 h); read-out: pSer396 Tau EC50
# Protocol: SH-SY5Y cells (human neuroblastoma) were cultured in DMEM/F-12 medium supplemented with 15% FBS, Non-essential Amino Acid and Penicillin/Streptomycin. Two days before treatment, cells were seeded onto 96 well plates at 5×10^4 cells/well.
# The above synthesized compounds were screened using the cell assay procedure to assess decrease Tau phosphorylation at Ser396 (pSer396) described below.
# DMSO-resuspended compounds were dispensed to 8 wells as a serial titration from 10 μM to 4.6 nM final in medium and cells were exposed overnight (16-18 h) in a humidified incubator at 36.6c before harvest.
# Cells were lysed with RIPA buffer complemented with phosphatase and protease inhibitors then lysates were spun down at 12,000 g for 10 min to remove any cellular debris. Lysates are then either directly tested for pSer396 by ELISA (Life Technology, Kit KHB7031) or loaded on NuPage Bis-Tris gels for western blot analysis. Colorimetric detection of ELISA signal is performed by Cytation3 plate reader (Biotek) and the chemiluminescence signal for HRP-linked antibodies used in western blotting is detected using a Carestream Image Station. The same pSer396 antibody is used for detection of pTau in both assays.
# Blot densitometry for pSer396 and β-actin were analyzed using ImageJ (NIH) and pSer396 Tau ELISA signal was used to plot, draw the curve fitting, and determine each compounds EC50 in Prism (GraphPad).
# [3] = tested on: SW480 colon carcinoma cells; assay: Cell viability assay (CellTiter-Glo); format: cell-based, human; settings: Homo sapiens; for EC50: 96 h, four days, CellTiter-Glo; for inhibition at 10 µM: read-out: percent inhibition at 10 μM (given for EC50 >10 μM), 10 μM
# [4] = tested on: LL29 cells (primary human fibroblasts derived from IPF patients), α-smooth muscle actin; assay: Inhibition of fibrotic process: TGF-β1-treated primary human fibroblasts, αSMA staining; format: cell-based; settings: Homo sapiens, Fibroblast; for EC50: 96 h, TGF-β1 20 ng/mL, 4 days, % cells positive for αSMA; for inhibition at 10 µM: read-out: percent inhibition at 10 μM (given for EC50 >10 μM), TGF-β1, αSMA, 10 μM;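 as to all read-outs here: controls were TGF-β1-stimulated wells with DMSO vehicle as the positive reference and cells given DMSO alone as the negative reference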
# [5] = tested on: IL-6 in human peripheral blood mononuclear cells (huPBMCs); assay: IL-6 inhibition in LPS-stimulated human peripheral blood mononuclear cells (HTRF); format: cell-based; settings: Homo sapiens, PBMC; for EC50: LPS 50 ng/mL, 22 hours, IL-6 HTRF; for inhibition at 10 µM: read-out: percent inhibition at 10 μM (given for EC50 >10 μM), LPS, IL-6, 10 μM
# How it was run: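 Compound-treated huPBMCs (1×10e6 cells/mL, 1% FBS-RPMI) were stimulated after 2 h with LPS (50 ng/mL) for another 22 h at 37° C. An anti-IL-6 HTRF pair reported IL-6 as the 665/620 nm ratio; activity relative to DMSO, EC50 by 4-parameter Levenberg-Marquardt fitting, duplicates.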
# [6] = molecular target: recombinant DYRK1A kinase (Homo sapiens (Human), UniProt Q13627); assay: DYRK1A kinase assay (Ser/Thr 18 peptide Z-lyte, FRET)
# [7] = tested on: pT212Tau in Dyrk1a- and MAPT-overexpressing HEK293T cells; assay: Tau phosphorylation at Threonine 212 (pT212Tau) sandwich ELISA in double transfected cells; settings: Homo sapiens, HEK-293T, read-out: Thr212 EC50 (μM)
# Protocol: HEK293T cells (transfectable human embryonic kidney cells) were cultured in DMEM medium supplemented with 10% FBS and 1% penicillin/streptomycin.
# HEK293T cells were transiently transfected to overexpress Dyrk1a and microtubule-associated protein Tau (MAPT) genes. Specifically, Dyrk1a and MAPT expression vectors were obtained from OriGene (10 μg of each, catalog numbers SC314641 and RC216166, respectively). […] HEK293T cells were seeded at 1.0×10^7 cells in 10 mL per T-75 flask. […] One T-75 flask was designated as a no-vector negative control for pT212Tau signal.
# After 4-6 hours of incubation in transfection reagents, transiently double transfected HEK293T cells were dissociated by treatment with trypsin EDTA and seeded at 1.0×10^5 cells in 100 μL per well in 96-well plates. No-vector negative controls were seeded in separate 96-well plates to avoid the risk of the negative control cells picking up the overexpression during incubation.
# 96-well flat-bottom plates were coated with 100 μL per well anti-HT7 capture antibody (ThermoFisher, MN1000) diluted 1:300 in 1×PBS at 4° C. overnight, with shaking at 500 rpm.
# Cells were then lysed with 100 μL 1×RIPA buffer supplemented with phosphatase and protease inhibitors (each diluted to a final 1×). […] V-bottom plates were centrifuged at 4000 rpm, 4° C., for 15 minutes, and 100 μL of lysate supernatant from each well was directly tested for pT212Tau signal by sandwich ELISA.
# [8] = tested on: secreted cytokines TNFα, IL-6 and KC-GRO in BV-2 cells (mouse microglial cells); assay: Secreted cytokines in lipopolysaccharide-stimulated mouse glial cell line; format: cell-based; settings: LPS 250 ng/mL 5 hours, table does not say which cytokine
# Protocol: Representative compounds were screened using the cell-based assay procedure for secreted cytokines in a Lipopolysaccharide-stimulated mouse glial cell line described below.
# BV-2 cells (mouse microglial cells) were cultured in 1:1 DMEM medium supplemented with 10% FBS, and 1% penicillin/streptomycin.
# BV-2 cells are plated at 35,000 cells/well in a volume of 100 μl for at least 4 hours before compounds are added. DMSO-resuspended compounds were first dispensed in a 96-well plate and serial diluted from 10 μM to 4.6 nM final concentration in medium. Compounds were added to cells overnight. 250 ng/mL of lipopolysaccharide (Escherichia coli O111:B4, SIGMA) was added for 5 hours. Supernatant is removed and saved for further cytokine detection. The original plates with seeded cells were tested for cytotoxicity by measure of adenosine triphosphate (ATP) release by adding CellTiter-Glo® diluted 1:4 in distilled water (G7573, Promega) and transferring lysed cells to a completely black 96-well plate to be read with the Cytation3. Supernatant was then diluted 1:2 with a diluent from V-PLEX cytokine Kit and directly tested for the secreted cytokines TNFα, IL-6 and KC-GRO using electrochemiluminescence (Meso Scale Discovery). The standard curve for each cytokine was used to convert the electrochemiluminescent signal into pg of protein per mL. The signal was used to plot, draw the curve fitting, and determine each compounds EC50 in Prism (GraphPad).
# [9] = GSK3β kinase, head says EC50, method says IC50, ATP 46 μM
# [10] = DYRK1A kinase, head says EC50, method says IC50, ATP 30 μM
# recombinant GSK3β kinase, sequence (P49841 whole entry): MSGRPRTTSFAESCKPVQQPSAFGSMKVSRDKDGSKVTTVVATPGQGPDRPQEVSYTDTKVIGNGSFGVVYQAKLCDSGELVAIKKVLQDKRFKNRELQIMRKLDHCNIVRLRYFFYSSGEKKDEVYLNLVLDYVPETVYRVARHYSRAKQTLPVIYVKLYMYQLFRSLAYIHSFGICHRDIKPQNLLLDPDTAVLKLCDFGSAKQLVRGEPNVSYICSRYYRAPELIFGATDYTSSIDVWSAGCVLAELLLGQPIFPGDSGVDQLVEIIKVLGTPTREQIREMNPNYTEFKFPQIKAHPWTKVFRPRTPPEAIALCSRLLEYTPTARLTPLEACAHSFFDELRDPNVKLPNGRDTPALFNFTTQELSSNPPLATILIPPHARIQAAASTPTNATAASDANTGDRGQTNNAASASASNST
SMILES,EC50 [1],EC50 (recombinant GSK3β kinase; [9]),EC50 [2],EC50 [3],EC50 [5],"EC50 [6, 10]",EC50 (recombinant GSK3β kinase),EC50 [6],EC50 [8],inhibition at 10 µM [1],inhibition at 10 µM [3],EC50 [4],inhibition at 10 µM [5],inhibition at 10 µM [4],EC50 [7]
"CN1CCC(C(=O)Nc2cc3cc(-c4ccccn4)ccc3cn2)CC1 [Compound 3, 1-Methyl-N-(6-(pyridin-2-yl)isoquinolin-3-yl)piperidine-4-carboxamide]",> 10000 nM,5310 nM,> 10000 nM,> 10000 nM,> 10000 nM,260 nM,,,,13.7%,50%,6010 nM,5.1%,,
"O=C(Nc1cc2cc(-c3cncc(F)c3)ccc2cn1)[C@H]1C[C@H](N2CCOCC2)C1 [Compound 16, trans-N-(6-(5-Fluoropyridin-3-yl)isoquinolin-3-yl)-3-morpholinocyclobutane-1-carboxamide]",> 10000 nM,256 nM,2600 nM,> 10000 nM,> 10000 nM,8 nM,,,,24.9%,15.5%,> 10000 nM,43.1%,6.7%,0.046 µM
"CN1CCN(CC(=O)Nc2cc3cc(-c4cncc(C(F)(F)F)c4)ccc3cn2)CC1 [Compound 29, 2-(4-Methylpiperazin-1-yl)-N-(6-(5-(trifluoromethyl)pyridin-3-yl)isoquinolin-3-yl)acetamide]",9840 nM,> 10000 nM,> 10000 nM,4000 nM,> 10000 nM,608 nM,,,,,,4020 nM,4.3%,,
"CN1CCC(C(=O)Nc2cc3cc(-c4cncc(CO)c4)ccc3cn2)CC1 [Compound 31, N-(6-(5-(Hydroxymethyl)pyridin-3-yl)isoquinolin-3-yl)-1-methylpiperidine-4-carboxamide]",862 nM,,9100 nM,859 nM,8940 nM,,698 nM,3 nM,,,,450 nM,,,
"CC(=O)Nc1cncc(-c2ccc3cnc(NC(=O)C4CCN(C)CC4)cc3c2)c1 [Compound 47, N-(6-(5-Acetamidopyridin-3-yl)isoquinolin-3-yl)-1-methylpiperidine-4-carboxamide]",1260 nM,487 nM,> 10000 nM,6980 nM,5990 nM,2 nM,,,,,,556 nM,,,
"O=C(Nc1cc2cc(-c3cncc(OC4CCNCC4)c3)ccc2cn1)C1CC1 [Compound 55, N-(6-(5-(Piperidin-4-yloxy)pyridin-3-yl)isoquinolin-3-yl) cyclopropanecarboxamide]",698 nM,1030 nM,1100 nM,1190 nM,3230 nM,5 nM,,,,,,2060 nM,,,

# Now from value to molecule, other results behind:
EC50 [1],EC50 (recombinant GSK3β kinase; [9]),EC50 [2],EC50 [3],EC50 [5],"EC50 [6, 10]",EC50 (recombinant GSK3β kinase),EC50 [6],EC50 [8],SMILES,inhibition at 10 µM [1],inhibition at 10 µM [3],EC50 [4],inhibition at 10 µM [5],inhibition at 10 µM [4],EC50 [7]
> 10000 nM,1970 nM,> 10000 nM,> 10000 nM,9660 nM,9 nM,,,,"CNC(=O)c1cncc(-c2ccc3cnc(NC(=O)C4CCN(C)CC4)cc3c2)c1 [Compound 58, N-Methyl-5-(3-(1-methylpiperidine-4-carboxamido)isoquinolin-6-yl) nicotinamide]",43.7%,30.9%,> 10000 nM,,44.6%,
> 10000 nM,> 10000 nM,> 10000 nM,> 10000 nM,> 10000 nM,221 nM,,,,"Cc1ncc(-c2ccc3cnc(NC(=O)C4CCN(C)CC4)cc3c2)cn1 [Compound 63, 1-Methyl-N-(6-(2-methylpyrimidin-5-yl)isoquinolin-3-yl)piperidine-4-carboxamide]",9.9%,7.4%,2390 nM,7.9%,,
> 10000 nM,,> 10000 nM,> 10000 nM,> 10000 nM,,8970 nM,48 nM,,"CN1CCC(C(=O)Nc2cc3cc(-c4cnc(N)nc4)ccc3cn2)CC1 [Compound 65, N-(6-(2-Aminopyrimidin-5-yl)isoquinolin-3-yl)-1-methylpiperidine-4-carboxamide]",32.2%,47.1%,2440 nM,0%,,
> 10000 nM,,7800 nM,> 10000 nM,9330 nM,,755 nM,17 nM,57 nM,"CN(C)[C@H]1CC[C@H](C(=O)Nc2cc3cc(-c4cnccn4)ccc3cn2)CC1 [Compound 70, trans-4-(dimethylamino)-N-(6-(pyrazin-2-yl)isoquinolin-3-yl)cyclohexane-1-carboxamide]",31%,35.3%,634 nM,,,
3510 nM,> 10000 nM,> 10000 nM,6760 nM,> 10000 nM,9 nM,,,,"O=C(Nc1cc2cc(-c3cnccn3)ccc2cn1)c1ccc(CN2CCOCC2)cc1 [Compound 83, 4-(Morpholinomethyl)-N-(6-(pyrazin-2-yl)isoquinolin-3-yl)benzamide]",,,> 10000 nM,5%,29.6%,
1060 nM,180 nM,807 nM,2420 nM,2090 nM,6 nM,,,,"O=C(Nc1cc2cc(-c3cncc(OCC4CNC4)n3)ccc2cn1)c1ccc(F)cc1 [Compound 124, N-(6-(6-(azetidin-3-ylmethoxy)pyrazin-2-yl)isoquinolin-3-yl)-4-fluorobenzamide]",,,> 10000 nM,,5.2%,
